Assay results: publication PMC11047392, “A Physiological Approach to Explore How Thioredoxin–Glutathione Reductase (TGR) and Peroxiredoxin (Prx) Eliminate H2O2 in Cysticerci of Taenia” (Antioxidants, 2024)

Biological target: T1, TsPrx1 (Taenia solium, UniProt Q2TP88)
T1 construct: recombinant, pET-23a(+) NdeI/XhoI, E. coli BL21 Codon Plus, His tag (printed as amino terminal), 195 residues, ~22 kDa
Test: NADPH oxidation at […] nm, coupled assay with TsTrx and TcTGR
Format: biochemical
Details: 150 μM NADPH, 60 μM TsTrx, 11.2 nM TcTGR, 1.25 μM TsPrx1, pH 7.8, 25 °C

T1 sequence (Q2TP88 entry or part of it): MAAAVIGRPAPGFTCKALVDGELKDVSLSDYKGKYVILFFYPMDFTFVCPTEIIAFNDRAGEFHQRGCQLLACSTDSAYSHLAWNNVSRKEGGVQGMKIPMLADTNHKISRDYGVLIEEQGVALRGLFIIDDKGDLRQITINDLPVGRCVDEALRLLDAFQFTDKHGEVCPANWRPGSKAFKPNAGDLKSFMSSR

With `CC(C)(C)OO` [t-butyl hydroperoxide] the Km was 18.1 µM.
